Test results taken from publication PMC9604400, “Synthesis, Anticancer and Antitubercular Properties of New Chalcones and Their Nitrogen-Containing Five-Membered Heterocyclic Hybrids Bearing Sulfonamide Moiety” (International Journal of Molecular Sciences, 2022).
Marks after values point to notes of the source that are not given here.

Legend:
M. tuberculosis H37Rv = assay: Checkerboard synergism assay; assay type: cell-based, Mycobacterium tuberculosis; settings: for MIC: Mycobacterium tuberculosis, H37RV, checkerboard, alone
Protocol: The synergism assays were carried out in 96-well plates with Middlebrook 7H9 medium supplemented with OADC.

[1] = tested on: 60 human cancer cell lines; assay: NCI-60 screen (SRB), whole panel; assay type: cell-based; settings: single dose 10 μM; for inhibition at 10 µM: Homo sapiens, mean over 60 cell lines, over 100% = cell death, read-out: Mean growth inhibition (GI) percentage
[2] = antibiotic in combination with 20a
[3] = antibiotic in combination with 20f

melting point [°C]	Compound	inhibition at 10 µM [1] [%]	further results
250 to 252	COc1ccc(C(=O)/C=C/c2ccc(C)cc2)cc1S(=O)(=O)NNC(=O)c1ccncc1	–	–
241 to 243	COc1ccc(C2=NN(C=O)C(c3ccc(Cl)cc3)C2)cc1S(=O)(=O)Nc1cccnc1 (stereo not shown)	–	–
269 to 271	COc1cc(OC)c(S(N)(=O)=O)cc1C1=NN(C=O)C(c2ccc(Cl)cc2)C1 (stereo not shown)	–	–
229 to 232	COc1ccc(C2=NN(C(C)=O)C(c3ccc(Cl)cc3)C2)cc1S(N)(=O)=O (stereo not shown)	–	–
156 to 158	COc1ccc(C2=NN(C=O)C(c3ccc(Cl)cc3)C2)cc1S(=O)(=O)NNC(=O)c1ccncc1 (stereo not shown)	–	–
166 to 168	COc1cc(OC)c(S(=O)(=O)NNC(=O)c2ccncc2)cc1C1=NN(C=O)C(c2ccc(Cl)cc2)C1 (stereo not shown)	–	–
146 to 148	COc1ccc(C2=NN(C(C)=O)C(c3ccc(Cl)cc3)C2)cc1S(=O)(=O)NNC(=O)c1ccncc1 (stereo not shown)	–	–
236 to 238	COc1ccc(C2=NN(C(N)=S)C(c3ccc(Cl)cc3)C2)cc1S(=O)(=O)Nc1cccnc1 (stereo not shown)	–	–
180 to 182	COc1cc(OC)c(S(=O)(=O)NNC(=O)c2ccncc2)cc1C1=NN(C(N)=S)C(c2ccc(Cl)cc2)C1 (stereo not shown)	–	–
–	NCC[C@H](O)C(=O)N[C@@H]1C[C@H](N)[C@@H](O[C@H]2O[C@H](CN)[C@@H](O)[C@H](O)[C@H]2O)[C@H](O)[C@H]1O[C@H]1O[C@H](CO)[C@@H](O)[C@H](N)[C@H]1O [AMK, amikacin, reference compound]	–	MIC (M. tuberculosis H37Rv): 1.5 µg/mL; FICI Index (M. tuberculosis H37Rv; [2]): 2.00; MIC Combination (M. tuberculosis H37Rv; [2]): 1.5 µg/mL; FICI Index (M. tuberculosis H37Rv; [3]): 2.00; MIC Combination (M. tuberculosis H37Rv; [3]): 1.5 µg/mL
–	COc1cc(OC)c(S(N)(=O)=O)cc1C(C)=O [Compound 8b, 5-Acetyl-2,4-dimethoxybenzenesulfonamide]	–	antiproliferative activity (in words) [1]: low antiproliferative activity
–	COc1ccc(C(C)=O)cc1S(=O)(=O)Nc1cccnc1 [Compound 10, 5-Acetyl-2-methoxy-N-(pyridin-3-yl)benzenesulfonamide]	3.21	antiproliferative activity (in words) [1]: low antiproliferative activity
–	COc1cc(OC)c(S(=O)(=O)N(CCCl)CCCl)cc1C(C)=O [Compound 12, 5-Acetyl-N,N-bis(2-chloroethyl)-2,4-dimethoxybenzenesulfonamide]	–	antiproliferative activity (in words) [1]: low antiproliferative activity
–	COc1ccc(C(C)=O)cc1S(=O)(=O)NNC(=O)c1ccncc1 [Compound 14a, 5-Acetyl-N’-isonicotinoyl-2-methoxybenzenesulfonohydrazide]	2.09	antiproliferative activity (in words) [1]: low antiproliferative activity
–	COc1cc(OC)c(S(=O)(=O)NNC(=O)c2ccncc2)cc1C(C)=O [Compound 14b, 5-Acetyl-N’-isonicotinoyl-2,4-dimethoxybenzenesulfonohydrazide]	–	antiproliferative activity (in words) [1]: low antiproliferative activity
184 to 186	COc1cc(OC)c(S(=O)(=O)N(CCCl)CCCl)cc1C(=O)C=Cc1ccccc1 [Compound 18a, N,N-bis(2-chloroethyl)-5-cinnamoyl-2,4-dimethoxybenzenesulfonamide]	–	–
186 to 187	COc1cc(OC)c(S(=O)(=O)N(CCCl)CCCl)cc1C(=O)/C=C/c1ccc(Cl)cc1 [Compound 18b, (E)-N,N-bis(2-Chloroethyl)-5-(3-(4-chlorophenyl)acryloyl)-2,4-dimethoxybenzenesulfonamide]	–	–
186 to 189	COc1cc(OC)c(S(=O)(=O)N(CCCl)CCCl)cc1C(=O)/C=C/c1ccc(C)cc1 [Compound 18c, (E)-N,N-bis(2-Chloroethyl)-2,4-dimethoxy-5-(3-(p-tolyl)acryloyl)benzenesulfonamide]	–	–
168 to 171	COc1ccc(/C=C/C(=O)c2cc(S(=O)(=O)N(CCCl)CCCl)c(OC)cc2OC)cc1 [Compound 18d, (E)-N,N-bis(2-Chloroethyl)-2,4-dimethoxy-5-(3-(4-methoxyphenyl)acryloyl)benzenesulfonamide]	–	–
193 to 196	COc1cc(OC)c(S(=O)(=O)N(CCCl)CCCl)cc1C(=O)/C=C/c1ccc2c(c1)OCO2 [Compound 18f, (E)-5-(3-(Benzo[d][1,3]dioxol-5-yl)acryloyl)-N,N-bis(2-chloroethyl)-2,4-dimethoxybenzenesulfonamide]	–	–
222 to 224	COc1cc(OC)c(S(=O)(=O)N(CCCl)CCCl)cc1C1=NN(C=O)C(c2ccc(Cl)cc2)C1 (stereo not shown) [Compound 22d, N,N-bis(2-Chloroethyl)-5-(5-(4-chlorophenyl)-1-formyl-4,5-dihydro-1H-pyrazol-3-yl)-2,4-dimethoxybenzenesulfonamide]	–	–
196 to 198	COc1cc(OC)c(S(=O)(=O)N(CCCl)CCCl)cc1C1=NN(C(N)=S)C(c2ccc(Cl)cc2)C1 (stereo not shown) [Compound 27e, 3-(5-(N,N-bis(2-Chloroethyl)sulfamoyl)-2,4-dimethoxyphenyl)-5-(4-chlorophenyl)-4,5-dihydro-1H-pyrazole-1-carbothioamide]	–	–
–	C[C@H]1COc2c(N3CCN(C)CC3)c(F)cc3c(=O)c(C(=O)O)cn1c23 [Levofloxacin, levofloxacin, reference compound]	–	MIC (M. tuberculosis H37Rv): 0.5 µg/mL; FICI Index (M. tuberculosis H37Rv; [2]): 1.25; MIC Combination (M. tuberculosis H37Rv; [2]): 0.5 µg/mL; FICI Index (M. tuberculosis H37Rv; [3]): 1.00; MIC Combination (M. tuberculosis H37Rv; [3]): 0.25 µg/mL
–	CO[C@H]1/C=C/O[C@@]2(C)Oc3c(C)c(O)c4c(O)c(c(/C=N/N5CCN(C)CC5)c(O)c4c3C2=O)NC(=O)/C(C)=C\C=C\[C@H](C)[C@H](O)[C@@H](C)[C@@H](O)[C@@H](C)[C@H](OC(C)=O)[C@@H]1C [RIF, rifampicin, reference compound]	–	MIC Combination (M. tuberculosis H37Rv; [2]): 0.048 µg/mL; FICI Index (M. tuberculosis H37Rv; [3]): 0.37 *; MIC Combination (M. tuberculosis H37Rv; [3]): 0.048 µg/mL

Compound	melting point [°C]	inhibition at 10 µM [1] [%]	further results
COc1ccc(C(=O)C=Cc2ccccc2)cc1S(=O)(=O)Nc1cccnc1 [Compound 16a, 5-Cinnamoyl-2-methoxy-N-(pyridin-3-yl)benzenesulfonamide]	229 to 230	16.5	–
COc1ccc(C(=O)/C=C/c2ccc(Cl)cc2)cc1S(=O)(=O)Nc1cccnc1 [Compound 16b, (E)-5-(3-(4-Chlorophenyl)acryloyl)-2-methoxy-N-(pyridin-3-yl)benzenesulfonamide]	256 to 258	17	–
COc1ccc(C(=O)/C=C/c2ccc(C)cc2)cc1S(=O)(=O)Nc1cccnc1 [Compound 16c, (E)-2-Methoxy-N-(pyridin-3-yl)-5-(3-(p-tolyl)acryloyl)benzenesulfonamide]	231 to 234	12.2	–
COc1ccc(/C=C/C(=O)c2ccc(OC)c(S(=O)(=O)Nc3cccnc3)c2)cc1 [Compound 16d, (E)-2-Methoxy-5-(3-(4-methoxyphenyl)acryloyl)-N-(pyridin-3-yl)benzenesulfonamide]	228 to 230	10.2	–
COc1ccc(C(=O)/C=C/c2cc(OC)c(OC)c(OC)c2)cc1S(=O)(=O)Nc1cccnc1 [Compound 16e, (E)-2-Methoxy-N-(pyridin-3-yl)-5-(3-(3,4,5-trimethoxyphenyl)acryloyl)benzenesulfonamide]	239 to 241	7.7	–
COc1ccc(C(=O)/C=C/c2ccc3c(c2)OCO3)cc1S(=O)(=O)Nc1cccnc1 [Compound 16f, (E)-5-(3-(Benzo[d][1,3]dioxol-5-yl)acryloyl)-2-methoxy-N-(pyridin-3-yl)benzenesulfonamide]	220 to 223	12.9	–
COc1ccc(/C=C/C(=O)c2cc(S(N)(=O)=O)c(OC)cc2OC)cc1 [Compound 17d, (E)-2,4-Dimethoxy-5-(3-(4-methoxyphenyl)acryloyl)benzenesulfonamide]	215 to 218	30	–
COc1cc(OC)c(S(N)(=O)=O)cc1C(=O)/C=C/c1cc(OC)c(OC)c(OC)c1 [Compound 17e, (E)-2,4-Dimethoxy-5-(3-(3,4,5-trimethoxyphenyl)acryloyl)benzenesulfonamide]	253 to 256	24.7	–
COc1ccc(C(=O)/C=C/c2ccc(Cl)cc2)cc1S(=O)(=O)NNC(=O)c1ccncc1 [Compound 19b, (E)-5-(3-(4-Chlorophenyl)acryloyl)-N’-isonicotinoyl-2-methoxybenzenesulfonohydrazide]	242 to 244	0.96	–
COc1ccc(C(=O)/C=C/c2cc(OC)c(OC)c(OC)c2)cc1S(=O)(=O)NNC(=O)c1ccncc1 [Compound 19e, (E)-N’-Isonicotinoyl-2-methoxy-5-(3-(3,4,5-trimethoxyphenyl)acryloyl)benzenesulfonohydrazide]	202 to 204	7.7	–
COc1ccc(C(=O)/C=C/c2ccc3c(c2)OCO3)cc1S(=O)(=O)NNC(=O)c1ccncc1 [Compound 19f, (E)-5-(3-(Benzo[d][1,3]dioxol-5-yl)acryloyl)-N’-isonicotinoyl-2-methoxybenzenesulfonohydrazide]	245 to 248	0.48	–
COc1cc(OC)c(S(=O)(=O)NNC(=O)c2ccncc2)cc1C(=O)/C=C/c1ccc(Cl)cc1 [Compound 20b, (E)-5-(3-(4-Chlorophenyl)acryloyl)-N’-isonicotinoyl-2,4-dimethoxybenzenesulfonohydrazide]	196 to 198	20	–
COc1cc(OC)c(S(=O)(=O)NNC(=O)c2ccncc2)cc1C(=O)/C=C/c1ccc(C)cc1 [Compound 20c, (E)-N’-Isonicotinoyl-2,4-dimethoxy-5-(3-(p-tolyl)acryloyl)benzenesulfonohydrazide]	195 to 197	26.9	–
COc1ccc(C2=NN(C=O)C(c3ccc(Cl)cc3)C2)cc1S(N)(=O)=O (stereo not shown) [Compound 22a, 5-(5-(4-Chlorophenyl)-1-formyl-4,5-dihydro-1H-pyrazol-3-yl)-2-methoxybenzenesulfonamide]	230 to 231	2.15	–
